For two molecules, Activity and inhibition results are on record in ChEMBL document CHEMBL5614424, “Natural Product-Inspired Discovery of Naphthoquinone-Furo-Piperidine Derivatives as Novel STAT3 Inhibitors for the Treatment of Triple-Negative Breast Cancer” (J Med Chem, 2024).

For assay [1], the system named is MDA-MB-231. In words: Induction of apoptosis in human MDA-MB-231 cells assessed as early apoptotic cells at 10 uM measured after 24 hrs incubation by the annexin V/propidium iodide (PI) double staining assay (reference value: 2.37%). It counts as functional.
Assay [2] has as its system MDA-MB-231. In words: Induction of apoptosis in human MDA-MB-231 cells assessed as late apoptotic cells at 10 uM measured after 24 hrs incubation by the annexin V/propidium iodide (PI) double staining assay (reference value: 3.08%). In kind it is functional.
In assay [3] the test system is MDA-MB-468. The assay is described as follows: Induction of apoptosis in human MDA-MB-468 cells assessed as early apoptotic cells at 10 uM measured after 24 hrs incubation by the annexin V/propidium iodide (PI) double staining assay (reference value: 2.36%). In kind it is functional.
The test system of assay [4] is MDA-MB-468. The assay is described as follows: Induction of apoptosis in human MDA-MB-468 cells assessed as late apoptotic cells at 10 uM measured after 24 hrs incubation by the annexin V/propidium iodide (PI) double staining assay (reference value: 4.33%). It counts as functional.
Assay [5] has as its system MDA-MB-231. In words: Inhibition of cell migration in human MDA-MB-231 cells assessed as decrease in wound closure rate at 5 uM incubated for 6 to 24 hrs by wound healing assay. It counts as functional, cell-based. The following applies: time 6-24 hrs.
Assay [6] addresses T1, Signal transducer and activator of transcription 1-alpha/beta (Homo sapiens) (UniProt P42224).
T1 sequence (whole entry): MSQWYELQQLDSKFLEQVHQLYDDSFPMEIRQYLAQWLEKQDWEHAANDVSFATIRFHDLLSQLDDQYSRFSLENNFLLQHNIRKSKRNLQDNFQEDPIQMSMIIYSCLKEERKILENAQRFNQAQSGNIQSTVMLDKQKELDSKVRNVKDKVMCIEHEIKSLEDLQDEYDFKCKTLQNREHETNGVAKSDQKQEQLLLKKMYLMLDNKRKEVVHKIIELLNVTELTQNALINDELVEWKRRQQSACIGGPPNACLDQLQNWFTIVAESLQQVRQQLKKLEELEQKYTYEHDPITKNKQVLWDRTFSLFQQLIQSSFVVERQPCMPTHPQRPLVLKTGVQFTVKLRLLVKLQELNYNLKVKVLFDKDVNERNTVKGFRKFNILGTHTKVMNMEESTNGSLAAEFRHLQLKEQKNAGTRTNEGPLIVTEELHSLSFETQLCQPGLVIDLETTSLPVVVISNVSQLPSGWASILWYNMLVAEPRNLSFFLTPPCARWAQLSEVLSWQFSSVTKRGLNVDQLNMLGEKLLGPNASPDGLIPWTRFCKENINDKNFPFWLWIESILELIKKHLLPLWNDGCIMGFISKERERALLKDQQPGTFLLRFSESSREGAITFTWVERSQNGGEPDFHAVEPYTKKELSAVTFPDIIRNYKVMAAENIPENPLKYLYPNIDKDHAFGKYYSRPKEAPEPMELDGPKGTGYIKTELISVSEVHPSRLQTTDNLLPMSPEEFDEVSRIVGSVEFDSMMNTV
The assay is described as follows: Inhibition of STAT1 activation in human MDA-MB-231 cell assessed as decrease in phosphorylated STAT1 (Tyr701) level at 1.25 to 5 uM measured after 24 hrs by Western blot analysis. In kind it is cell-based. The following applies: dose 1.25-5 µM.

Assay [7] deals with T2, Signal transducer and activator of transcription 5A (Homo sapiens) (UniProt P42229).
T2 sequence (whole entry): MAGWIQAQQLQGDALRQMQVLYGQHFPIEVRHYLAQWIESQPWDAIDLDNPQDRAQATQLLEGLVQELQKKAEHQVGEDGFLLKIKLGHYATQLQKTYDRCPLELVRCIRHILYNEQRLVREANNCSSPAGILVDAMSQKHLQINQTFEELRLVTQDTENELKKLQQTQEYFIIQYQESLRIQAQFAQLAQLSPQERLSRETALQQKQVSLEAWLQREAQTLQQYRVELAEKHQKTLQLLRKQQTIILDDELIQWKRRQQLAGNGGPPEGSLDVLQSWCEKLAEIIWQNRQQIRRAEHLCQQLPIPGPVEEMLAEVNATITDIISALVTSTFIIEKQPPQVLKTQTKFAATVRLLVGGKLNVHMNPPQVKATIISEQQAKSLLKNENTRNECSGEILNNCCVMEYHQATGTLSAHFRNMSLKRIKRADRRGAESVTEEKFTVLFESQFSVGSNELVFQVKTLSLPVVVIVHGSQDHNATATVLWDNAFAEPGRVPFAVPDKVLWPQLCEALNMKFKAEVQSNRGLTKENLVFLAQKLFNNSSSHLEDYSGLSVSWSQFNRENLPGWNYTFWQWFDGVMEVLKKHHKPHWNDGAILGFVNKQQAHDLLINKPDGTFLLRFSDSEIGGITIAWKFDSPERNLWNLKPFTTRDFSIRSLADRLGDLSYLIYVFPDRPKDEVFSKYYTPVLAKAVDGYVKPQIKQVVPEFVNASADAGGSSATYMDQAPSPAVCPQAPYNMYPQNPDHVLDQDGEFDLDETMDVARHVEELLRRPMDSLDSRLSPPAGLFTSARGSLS
In words: Inhibition of STAT5 activation in human MDA-MB-231 cell assessed as decrease in […] level at 1.25 to 5 uM measured after 24 hrs by Western blot analysis. In kind it is cell-based. The following applies: dose 1.25-5 µM. A general note: A western blot detects proteins with antibodies after separation by electrophoresis.

Assay [8] has as its system MDA-MB-231. In words: Decrease in STAT5 expression level in human MDA-MB-231 cell nucleus at 1.25 to 5 uM measured after 24 hrs by Western blot analysis. In kind it is functional, cell-based. The following applies: dose 1.25-5 µM.
Assay [9] deals with MDA-MB-468. The assay is described as follows: Decrease in STAT5 expression level in human MDA-MB-468 cell nucleus at 1.25 to 5 uM measured after 24 hrs by Western blot analysis. It counts as functional, cell-based. The following applies: dose 1.25-5 µM.
In assay [10] the test system is MDA-MB-231. The assay is described as follows: Decrease in STAT5 expression level in human MDA-MB-231 cell cytoplasm at 1.25 to 5 uM measured after 24 hrs by Western blot analysis. It counts as functional, cell-based. The following applies: dose 1.25-5 µM.
Assay [11] deals with MDA-MB-468. The assay is described as follows: Decrease in STAT5 expression level in human MDA-MB-468 cell cytoplasm at 1.25 to 5 uM measured after 24 hrs by Western blot analysis. In kind it is functional, cell-based. To be noted: dose 1.25-5 µM.
The subject of assay [12] is MDA-MB-231. The assay is described as follows: Inhibition of colony formation in human MDA-MB-231 cells assessed as reduction in colony number and size at 1.25 to 5 uM by plate colony formation assay. It counts as functional, cell-based. To be noted: dose 1.25-5 µM.
For assay [13], the system named is MDA-MB-231. The assay is described as follows: Anti-invasion ability in human MDA-MB-231 cells assessed as reduction in cell invasion and migration ability rate incubated for 24 hrs by Boyden chamber transwell assay. The following applies: dose 1.25-5 µM. In kind it is functional, cell-based.
The subject of assay [14] is MDA-MB-231. The assay is described as follows: Induction of apoptosis in human MDA-MB-231 cells assessed as up-regulation of cleaved caspase 9 at 2.5 to 5 uM measured after 24 hrs by Western blotting analysis. In kind it is functional, cell-based. The following applies: dose 2.5-5 µM.
In assay [15] the test system is MDA-MB-231. The assay is described as follows: Induction of apoptosis in human MDA-MB-231 cells assessed as up-regulation of cleaved caspase 3 at 2.5 to 5 uM measured after 24 hrs by Western blotting analysis. To be noted: dose 2.5-5 µM. In kind it is functional, cell-based.
Assay [16] concerns MDA-MB-231. The assay is described as follows: Induction of apoptosis in human MDA-MB-231 cells assessed as up-regulation of cleaved Bax at 2.5 to 5 uM measured after 24 hrs by Western blotting analysis. In kind it is functional, cell-based. To be noted: dose 2.5-5 µM.
For assay [17], the system named is MDA-MB-231. In words: Induction of apoptosis in human MDA-MB-231 cells assessed as down-regulation of cleaved […] at 2.5 to 5 uM measured after 24 hrs by Western blotting analysis. In kind it is functional, cell-based. The following applies: dose 2.5-5 µM.
The test system of assay [18] is MDA-MB-231. In words: Induction of apoptosis in human MDA-MB-231 cells assessed as down-regulation of cleaved Bcl-2 at 2.5 to 5 uM measured after 24 hrs by Western blotting analysis. In kind it is functional, cell-based. To be noted: dose 2.5-5 µM.
The test system of assay [19] is MDA-MB-468. In words: Induction of apoptosis in human MDA-MB-468 cells assessed as up-regulation of cleaved caspase 9 at 2.5 to 5 uM measured after 24 hrs by Western blotting analysis. It counts as functional, cell-based. To be noted: dose 2.5-5 µM.
The test system of assay [20] is MDA-MB-468. In words: Induction of apoptosis in human MDA-MB-468 cells assessed as up-regulation of cleaved caspase 3 at 2.5 to 5 uM measured after 24 hrs by Western blotting analysis. It counts as functional, cell-based. The following applies: dose 2.5-5 µM.
Assay [21] deals with MDA-MB-468. In words: Induction of apoptosis in human MDA-MB-468 cells assessed as up-regulation of cleaved Bax at 2.5 to 5 uM measured after 24 hrs by Western blotting analysis. In kind it is functional, cell-based. To be noted: dose 2.5-5 µM.
The subject of assay [22] is MDA-MB-468. The assay is described as follows: Induction of apoptosis in human MDA-MB-468 cells assessed as […] at 2.5 to 5 uM measured after 24 hrs by Western blotting analysis. In kind it is functional, cell-based. To be noted: dose 2.5-5 µM.
The subject of assay [23] is MDA-MB-468. In words: Induction of apoptosis in human MDA-MB-468 cells assessed as down-regulation of cleaved Bcl-2 at 2.5 to 5 uM measured after 24 hrs by Western blotting analysis. To be noted: dose 2.5-5 µM. It counts as functional, cell-based.
The test system of assay [24] is MDA-MB-231. The assay is described as follows: In vivo antitumor activity against human MDA-MB-231 cells xenografted in Female BALB/c-nude assessed as increase in TUNEL positive cells in tumor tissue at 15 to 30 mg/kg, ip once daily for 21 consecutive days by TUNEL cell apoptosis assay. It counts as functional, organism-based. To be noted: dose 15-30 mg/kg, time 21.0 day. For orientation: A xenograft is tissue or cells of one species grown in another, often human tumour cells in immunodeficient mice.

Assay [25] concerns MDA-MB-231. The assay is described as follows: In vivo antitumor activity against human MDA-MB-231 cells xenografted in Female BALB/c-nude assessed as up-regulation of C-Caspase 3 expression in tumor tissue at 15 to 30 mg/kg, ip once daily for 21 consecutive days by […]. To be noted: dose 15-30 mg/kg, time 21.0 day. It counts as functional, organism-based.

Assay [26] has as its system MDA-MB-231. In words: In vivo antitumor activity against human MDA-MB-231 cells xenografted in Female BALB/c-nude assessed as down-regulation of p-STAT3 expression in tumor tissue at 15 to 30 mg/kg, ip once daily for 21 consecutive days by […]. In kind it is functional, organism-based. To be noted: dose 15-30 mg/kg, time 21.0 day.

Structures are written as SMILES. Calls of active or inactive are those of the source. The calls are words filed in the database; no cut-off is given here. Peptide text beside a SMILES is read from it. * marks the point of attachment. Cbz = O=C(OCc1ccccc1)*; CH2F = FC*

For the molecule `CC(C)[C@H](NC(=O)OCc1ccccc1)C(=O)N[C@@H](C)C(=O)N[C@@H](CC(=O)O)C(=O)CF` (Cbz-Val-Ala-Asp-CH2F), the Activity was 2.76% in the assay with MDA-MB-231 [1], 2.63% with MDA-MB-231 [2], 5.02% with MDA-MB-468 [3] and 2.19% with MDA-MB-468 [4].

Turning to `CC(C)C[C@@H](CO)N1CCc2c(oc3c2C(=O)C(=O)c2ccccc2-3)C1`, the inhibition entry in the assay on MDA-MB-231 [5] and with MDA-MB-231 [12] was “Active” each time. In addition, the inhibition entry in assay [6] and in assay [7] was “inactive” in each case. Further, the result in the assay on MDA-MB-231 [8], with MDA-MB-468 [9], with MDA-MB-231 [14], with MDA-MB-231 [15], with MDA-MB-231 [16] and in the assay with MDA-MB-231 [17] was Active. Further, the result with MDA-MB-231 [18], in the assay with MDA-MB-468 [19], in the assay on MDA-MB-468 [20], with MDA-MB-468 [21], in the assay with MDA-MB-468 [22] and in the assay on MDA-MB-468 [23] was Active. Further, the result with MDA-MB-231 [24], in the assay on MDA-MB-231 [25] and in the assay on MDA-MB-231 [26] was Active. Besides, the outcome in the assay with MDA-MB-231 [10] and in the assay with MDA-MB-468 [11] was inactive. For the same molecule, in the assay with MDA-MB-231 [13], the Activity result was “Dose-Dependent Effect”.
